Where two headings read alike, the source gives them in different places.
Legend:
human placental 17β-HSD1 [1] = biological target: T1, human placental 17β-HSD1 (Homo sapiens, UniProt P14061); test: in vitro radiosubstrate incubation, 17β-HSD1 inhibition (estrone to 17β-estradiol conversion); assay type: biochemical; conditions: for remaining activity at 10 µM: read-out: Relative conversion ± SD
T1 sequence (P14061 1-328): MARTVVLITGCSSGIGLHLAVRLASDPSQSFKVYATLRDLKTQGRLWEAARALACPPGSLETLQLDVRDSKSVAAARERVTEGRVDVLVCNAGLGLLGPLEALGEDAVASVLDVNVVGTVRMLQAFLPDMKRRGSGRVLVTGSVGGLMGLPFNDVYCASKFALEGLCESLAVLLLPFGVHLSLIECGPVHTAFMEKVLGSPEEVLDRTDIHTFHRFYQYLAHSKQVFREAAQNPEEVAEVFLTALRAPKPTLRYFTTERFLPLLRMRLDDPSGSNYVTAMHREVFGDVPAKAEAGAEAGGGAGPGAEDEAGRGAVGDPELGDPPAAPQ
Protocol: Determination of 17β-HSD1 inhibition
The inhibitory effects exerted on 17β-HSD1 activity by the newly synthesized conjugates were determined via an in vitro radiosubstrate incubation method described in detail earlier.[1]
Radiolabeled Chemicals (St. Louis, MO, USA).
NADPH cofactor, other chemicals and solvents of analytical grade purity were purchased from Sigma (St. Louis, MO, USA) and Fluka (Buchs, Switzerland).
Kieselgel-G TLC layers (Si 254 F, 0.25 mm thick) were obtained from Merck (Darmstadt, Germany). Human term placenta specimens were collected and used with the ethical approval of the Institutional Human Investigation Review Board.
Human term placenta specimens were combined and homogenized with an Ultra-Turrax in 0.1 M HEPES buffer (pH 7.3) containing 1 mM EDTA and 1 mM dithiotreitol, and the cytosol was obtained by fractionated centrifugation. The substrate tritium- […]
propylene glycol in HEPES buffer solution, whereas the test compounds were applied in 10 µl of dimethyl sulfoxide solution. (These organic solvent contents in the 200 µl […]
activity substantially.) Cofactor NADPH was used in excess concentration (100 µM).
The enzymatic reaction was started by the addition of the cytosol aliquots. Incubation was carried out at 37 °C for 2.5 min and was then stopped by the addition of ethyl […]
were added to the samples. The two steroids were separated by TLC with the solvent system dichloromethane/diisopropyl ether/ethyl acetate (70:15:15 v/v) and UV spots were used to trace the separated steroids. Spots were cut out and the radioactivity of […]
counting. Test compounds were applied at 10 µM and their inhibitory effects were expressed by relative conversions, in comparison with the transformation measured in the noninhibited control incubation. Two measurements were performed for each test compound and the mean was calculated. The IC50 values (the inhibitor concentration which decreases the enzyme activity to 50%) were determined for the […]
In these cases, conversions were measured at different concentrations in the interval 0.001–50 µM. IC50 results were calculated by using unweighted iterative least-squares logistic curve-fitting by means of the “absolute IC50 calculation” function of GraphPad Prism 4.0. The IC50 of unlabeled […]
1 Bacsa, I.; Jójárt, R.; Schneider, G.; Wölfling, J.; Maróti, P.; Herman, B. E.; Szécsi,
2 Szabó, J.; Jerkovics N.; Schneider G.; Wölfling J.; Bózsity N.; Minorics R.; Zupkó I.;

human placental 17β-HSD1 [2] = biological target: T1, human placental 17β-HSD1; design: method as in PMID 26476182, PMID 27424610; conditions: precursors marked with asterisk; cited from earlier work

For `C[C@@]12CC[C@@H]3c4cc(C#Cc5ccc(C(F)(F)F)cc5)c(O)cc4CC[C@H]3[C@@H]1CCC2=O` [Compound 8e], the IC50 (human placental 17β-HSD1 [1]) was 930 nM.
Work on `COc1ccc2c(c1C#Cc1ccccc1)CC[C@@H]1[C@@H]2CC[C@@]2(C)C(=O)CC[C@@H]12` [Compound 11a] yielded a remaining activity at 10 µM (human placental 17β-HSD1 [1]) of 92 ± 12%.
`C[C@@]12CC[C@@H]3c4ccc(O)c(C#Cc5ccc(F)cc5)c4CC[C@H]3[C@@H]1CCC2=O` [Compound 10d] showed a remaining activity at 10 µM (human placental 17β-HSD1 [1]) of 96 ± 7%.
`C[C@@]12CC[C@@H]3c4cc(C#Cc5ccccc5)c(O)cc4CC[C@H]3[C@@H]1CCC2=O` [Compound 8a] showed an IC50 (human placental 17β-HSD1 [1]) of 150 nM.
With `COc1ccc(CCc2cc3c(cc2OC)CC[C@@H]2[C@@H]3CC[C@@]3(C)C(=O)CC[C@@H]23)cc1` [Compound 17] the remaining activity at 10 µM (human placental 17β-HSD1 [1]) was 63 ± 8%.
`COc1cc2c(cc1C#Cc1ccc(F)cc1)[C@H]1CC[C@@]3(C)C(=O)CC[C@H]3[C@@H]1CC2` [Compound 9d] showed a remaining activity at 10 µM (human placental 17β-HSD1 [1]) of 94 ± 5%.
Compound `Cc1ccc(C#Cc2c(O)ccc3c2CC[C@@H]2[C@@H]3CC[C@@]3(C)C(=O)CC[C@@H]23)cc1` [Compound 10b] has a remaining activity at 10 µM (human placental 17β-HSD1 [1]) of 89 ± 0.4%.
In the case of `COc1ccc(CCc2c(OC)ccc3c2CC[C@@H]2[C@@H]3CC[C@@]3(C)C(=O)CC[C@@H]23)cc1` [Compound 19], the remaining activity at 10 µM (human placental 17β-HSD1 [1]) is reported as 94 ± 1%.
`COc1cc2c(cc1C#Cc1ccccc1)[C@H]1CC[C@@]3(C)C(=O)CC[C@H]3[C@@H]1CC2` [Compound 9a] showed a remaining activity at 10 µM (human placental 17β-HSD1 [1]) of 88 ± 12%.
For `COc1ccc(C#Cc2cc3c(cc2O)CC[C@@H]2[C@@H]3CC[C@@]3(C)C(=O)CC[C@@H]23)cc1` [Compound 8c], the IC50 (human placental 17β-HSD1 [1]) was 230 nM.
Work on `COc1ccc(C#Cc2cc3c(cc2OC)CC[C@@H]2[C@@H]3CC[C@@]3(C)C(=O)CC[C@@H]23)cc1` [Compound 9c] yielded a remaining activity at 10 µM (human placental 17β-HSD1 [1]) of 85 ± 1%.
With `COc1cc2c(cc1C#Cc1ccc(C)cc1)[C@H]1CC[C@@]3(C)C(=O)CC[C@H]3[C@@H]1CC2` [Compound 9b] the remaining activity at 10 µM (human placental 17β-HSD1 [1]) was 84 ± 5%.
`COc1ccc(CCc2cc3c(cc2O)CC[C@@H]2[C@@H]3CC[C@@]3(C)C(=O)CC[C@@H]23)cc1` [Compound 16] gave an IC50 (human placental 17β-HSD1 [1]) of 470 nM.
`COc1ccc(/C=C\c2cc3c(cc2OC)CC[C@@H]2[C@@H]3CC[C@@]3(C)C(=O)CC[C@@H]23)cc1` [Compound 13] showed a remaining activity at 10 µM (human placental 17β-HSD1 [1]) of 70 ± 6%.
Compound `COc1ccc(C#Cc2c(OC)ccc3c2CC[C@@H]2[C@@H]3CC[C@@]3(C)C(=O)CC[C@@H]23)cc1` [Compound 11c] has a remaining activity at 10 µM (human placental 17β-HSD1 [1]) of 83 ± 8%.
For `COc1ccc(C#Cc2c(O)ccc3c2CC[C@@H]2[C@@H]3CC[C@@]3(C)C(=O)CC[C@@H]23)cc1` [Compound 10c], the remaining activity at 10 µM (human placental 17β-HSD1 [1]) was 91 ± 2%.
In the case of `COc1ccc2c(c1C#Cc1ccc(C(F)(F)F)cc1)CC[C@@H]1[C@@H]2CC[C@@]2(C)C(=O)CC[C@@H]12` [Compound 11e], the remaining activity at 10 µM (human placental 17β-HSD1 [1]) is reported as 79 ± 3%.
With `COc1ccc(CCc2c(O)ccc3c2CC[C@@H]2[C@@H]3CC[C@@]3(C)C(=O)CC[C@@H]23)cc1` [Compound 18] the remaining activity at 10 µM (human placental 17β-HSD1 [1]) was 98 ± 3%.
With `COc1cc2c(cc1C#Cc1ccc(C(F)(F)F)cc1)[C@H]1CC[C@@]3(C)C(=O)CC[C@H]3[C@@H]1CC2` [Compound 9e] the remaining activity at 10 µM (human placental 17β-HSD1 [1]) was 76 ± 1%.
For `C[C@@]12CC[C@@H]3c4ccc(O)c(C#Cc5ccccc5)c4CC[C@H]3[C@@H]1CCC2=O` [Compound 10a], the remaining activity at 10 µM (human placental 17β-HSD1 [1]) was 92 ± 15%.
In the case of `COc1ccc2c(c1I)CC[C@@H]1[C@@H]2CC[C@@]2(C)C(=O)CC[C@@H]12` [Compound 6], the IC50 (human placental 17β-HSD1 [2]) is given as 560 nM.
`C[C@@]12CC[C@@H]3c4cc(C#Cc5ccc(F)cc5)c(O)cc4CC[C@H]3[C@@H]1CCC2=O` [Compound 8d] showed an IC50 (human placental 17β-HSD1 [1]) of 300 nM.
With `COc1ccc2c(c1C#Cc1ccc(F)cc1)CC[C@@H]1[C@@H]2CC[C@@]2(C)C(=O)CC[C@@H]12` [Compound 11d] the remaining activity at 10 µM (human placental 17β-HSD1 [1]) was 83 ± 1%.
Compound `Cc1ccc(C#Cc2cc3c(cc2O)CC[C@@H]2[C@@H]3CC[C@@]3(C)C(=O)CC[C@@H]23)cc1` [Compound 8b] has an IC50 (human placental 17β-HSD1 [1]) of 1400 nM.
For `COc1ccc(-c2cc3c4c(ccc3o2)[C@H]2CC[C@@]3(C)C(=O)CC[C@H]3[C@@H]2CC4)cc1` [Compound 14], the remaining activity at 10 µM (human placental 17β-HSD1 [1]) was 102 ± 6%.
Work on `COc1ccc(/C=C/c2c(OC)ccc3c2CC[C@@H]2[C@@H]3CC[C@@]3(C)C(=O)CC[C@@H]23)cc1` [Compound 15] yielded a remaining activity at 10 µM (human placental 17β-HSD1 [1]) of 80 ± 12%.
For `C[C@@]12CC[C@@H]3c4ccc(O)c(C#Cc5ccc(C(F)(F)F)cc5)c4CC[C@H]3[C@@H]1CCC2=O` [Compound 10e], the remaining activity at 10 µM (human placental 17β-HSD1 [1]) was 85 ± 1%.
`COc1ccc(-c2cc3cc4c(cc3o2)CC[C@@H]2[C@@H]4CC[C@@]3(C)C(=O)CC[C@@H]23)cc1` [Compound 12] showed a remaining activity at 10 µM (human placental 17β-HSD1 [1]) of 92 ± 2%.
In the case of `COc1cc2c(cc1I)[C@H]1CC[C@@]3(C)C(=O)CC[C@H]3[C@@H]1CC2` [Compound 4], the IC50 (human placental 17β-HSD1 [2]) is listed as over 10000 nM.
`COc1ccc2c(c1C#Cc1ccc(C)cc1)CC[C@@H]1[C@@H]2CC[C@@]2(C)C(=O)CC[C@@H]12` [Compound 11b] showed a remaining activity at 10 µM (human placental 17β-HSD1 [1]) of 52 ± 12%.
